Measured values: patent US20200031873A1, “REPURPOSING CELL PENETRATING PEPTIDES AND THEIR NOVEL DERIVATIVES AND IOPROMIDE AND IODO-ARYL CARBONATES FOR TREATMENT OF SENESCENCE-RELATED DISEASES AND DISORDERS” (Eternans Limited, priority 2018, published 2020)
Entries after “also recorded” stand apart in the source; their conditions may differ. Where a SMILES comes first, the peptide text is derived from it.

Experiments:
BALB/c mice = assay: Acute Sytemic Toxicity Test (ISO 10993-11); format: in vivo; parameters: hematological parameters, AST, ALT, ALP levels and gross pathology: dose or concentration left out as unconfirmed
Procedure: Senolytic Peptides were evaluated for toxicity according to Acute Sytemic Toxicity Test (ISO 10993-11). This study was performed in strict accordance with the protocol approved by the TUBITAK-MAM Animal Ethics Committee. All the mice used in this study were of a BALB/c background at 8-12 weeks of age. All mice were kept in group housing until the start of the experiment after which they were placed in separate cages (5 mice per cage). […] Control and Senolytic Peptide (SEQ ID NO: 2) injected mice were sacrificed 24 hours later for pathological examination. […] Blood samples were subsequently collected for determination and analysis of hematological and biochemical parameters. Plasma alanine aminotransferase (ALT), aspartate aminotransferase (AST), alkaline phosphatase (ALP) activities and blood urea, glucose, triglyceride levels were determined, inter alia, full hematological parameters.

[1] = system: senescent and non-senescent WI-38 fibroblasts; format: cell-based, human; details: total doses 0 to 100 μM on 3 consecutive days, read after 7 days, listed as SEQ ID NO: 11
Procedure: WI-38 cells (ATCC # CCL-75, a diploid primary human fibroblast adherent cell line derived from fetal lung tissue) were treated with a chemotherapy agent, 100 nM Doxorubicin twice every other day to induce senescence. […] Later these cells were used for experiments comparing them to their non-Doxorubicin (non-senescent) treated counterparts. Senescent and non-senescent WI-38 fibroblasts were plated for XTT viability assays. 7000 senescent (obtained as described above) and 2000 non-senescent WI-38 fibroblasts were plated in 96-well plates incubated. The cells were treated with mock (PBS) or the Senolytic Peptide (SEQ ID NO: 11) at total doses ranging from 0 to 100 μM. The mock and peptide treatments were carried out for 3 consecutive days (24, 48 and 72 hours) after plating. After treatment period, the cells were incubated for 7 days until XTT-based viability was analyzed according to the manufacturer's instructions. […] The Senolytic Peptide (SEQ ID NO: 2) was ordered from Chinese Peptide Company with TFA removal.

Row | Compound | toxicity to the physical appearance of the mice (BALB/c mice; intravenous single injection, 1, 10, 50 and 100 mg/kg, within 24 hours) | hematological parameters, AST, ALT, ALP levels and gross pathology (BALB/c mice; intravenous single injection, 24 hours, even at higher doses) | viability of senescent vs non-senescent cells (XTT) [1]
1 | N=C(N)NCCC[C@H](NC(=O)[C@H](CCCNC(=N)N)NC(=O)[C@H](CCCNC(=N)N)NC(=O)[C@H](CCC(N)=O)NC(=O)[C@H](CCCNC(=N)N)NC(=O)[C@H](CCCNC(=N)N)NC(=O)[C@H](CCCCN)NC(=O)[C@H](CCCCN)NC(=O)[C@H](CCCNC(=N)N)NC(=O)CNC(=O)[C@H](Cc1ccc(O)cc1)NC(=O)[C@H](CCCNC(=N)N)NC(=O)[C@H](CCCNC(=N)N)NC(=O)[C@H](CCCNC(=N)N)NC(=O)[C@H](CCC(N)=O)NC(=O)[C@H](CCCNC(=N)N)NC(=O)[C@H](CCCNC(=N)N)NC(=O)[C@H](CCCCN)NC(=O)[C@H](CCCCN)NC(=O)[C@H](CCCNC(=N)N)NC(=O)CNC(=O)[C@H](Cc1ccc(O)cc1)NC(=O)[C@H](CCCNC(=N)N)NC(=O)[C@H](CCCNC(=N)N)NC(=O)[C@H](CCCNC(=N)N)NC(=O)[C@H](CCC(N)=O)NC(=O)[C@H](CCCNC(=N)N)NC(=O)[C@H](CCCNC(=N)N)NC(=O)[C@H](CCCCN)NC(=O)[C@H](CCCCN)NC(=O)[C@H](CCCNC(=N)N)NC(=O)CNC(=O)[C@@H](N)Cc1ccc(O)cc1)C(=O)O [ID 2] (H-YGRKKRRQRRRYGRKKRRQRRRYGRKKRRQRRR-OH; N-terminus and C-terminus assumed) | No toxicity to the physical appearance of the mice was observed | no toxicity | 
2 | TRQARRNRRRRWRERQR [ID 11] |  |  | selective decrease in the viability of senescent cells but not non-senescent cells; also recorded: selectively decreased the viability of senescent cells but not non-senescent cells
